Here are results for two compounds from patent publication US12208228B2, “Microneedle array comprising a heat-producing element” (LTS LOHMANN THERAPIE-SYSTEME AG, priority 2019, dated 2025).

The data set in a line: In vitro permeation studies in static vertical Franz cells, microneedle systems pressed into dermatomized minipig skin. In kind it is in vitro ADME, Göttingen Minipigs. From the text: The back part of Gottinger Minipighaut (Ellegaard Göttingen Minipigs Agricultural Service, Dalmose, Denmark) was used as the skin. The skin, which is delivered as a so-called full skin without subcutaneous fatty tissue in a frozen state, must first be thawed at room temperature and carefully shaved with plenty of water without using any shaving foam to remove the bristles. The skin is then dermatomized or cut to a layer thickness of 800 μm with the aid of an Acculan 3TI battery-powered electric dermatome (Aesculap AG, Tuttlingen, Germany). Circular punched pieces having a diameter of 25 mm are then knocked out of the pieces of skin treated in this way with the help of a corresponding punching tool, for example, a handle punch and are stored shrink-wrapped in PE bags until further use at −20 degrees Celsius (maximum storage period under these conditions up to 12 months).
The permeation studies were performed in static and vertical Franz cells (Glastechnik Gräfenroda, Germany) with a diffusion area of 1.595 cm^2 and an acceptor volume of 10 ml. The acceptor medium used was phosphate buffer having a pH value of 7.4 according to DAB 10, tempered to 32° C. during the entire permeation time and constantly stirred for uniform mixing of the permeated active ingredient. The acceptor medium was completely replaced by fresh one at the scheduled sampling times. Before the pre-prepared skin punches are clamped in the Franz cells and filled with acceptor, the microneedle systems must first be pressed into the top layer of skin using a manufactured pressure adapter, in the sense of a nail gun with an impulse strength of 150 N/cm^2.
Before filling with the acceptor and inserting the Franz cells into the water bath controlled to a temperature of 32° C., the temperature-controlled cell heads are put on or they are prepared with an active heat pack mixture, see also the figures including explanations.
The analytical determination was carried out by means of HPLC on a C18-Inertsil separation column (250×4.6 mm, 5 μm particle size; VDS Optilab, Berlin) by means of UV detection at 282 nm and at 30 degrees Celsius. A mixture consisting of acetonitrile, methanol and 0.02167 m sodium dihydrogen phosphate solution 10:20:85 (v %/v %/v %) and a pH of 3.2 was used as the eluent. The flow rate was 1.0 ml/min and 20 μl were injected.
The analytical determination was carried out by means of HPLC on a C12-Synergi-Max-RP separation column (150×4.6 mm, 4 μm particle size; Phenomenex, Aschaffenburg) by means of UV detection at 273 nm and at 25 degrees Celsius. A mixture consisting of methanol and HPLC water 40:60 (v %/v %) was used as an eluent. The flow rate was 1.0 ml/min and 20 μl were injected.

Turning to `Cn1c(=O)c2c(ncn2C)n(C)c1=O` [caffeine, Caffeine], the lag time turned out to be 40 min (FIG. 5, inventive example with external heat generation (heatable thermostated-water cell head), period of 8 hours) and 100 min (FIG. 5, reference system without additional heat generation, period of 8 hours). Further, the “amount or rate of release of API, factor greater than that of the reference” value (FIG. 5, inventive example with heat (heatable cell head) vs reference without heat, 8 hours) is roughly 2. For the same compound, the “lag time of reference larger than inventive example by a factor” value (FIG. 5, reference without heat vs inventive example with heat) is reported as 2.5.
For `CNS(=O)(=O)Cc1ccc2[nH]cc(CCN(C)C)c2c1` [sumatriptan succinate, Sumatriptan succinate], the lag time turned out to be 20 min (FIG. 2, inventive example with external heat generation (heatable thermostated-water cell head), period up to 6 hours); 40 min (FIG. 2, reference system without additional heat generation, period up to 6 hours); 0.5 min (FIG. 3, inventive example with external heat generation (heatable thermostated-water cell head), period of 60 minutes); 1.0 min (FIG. 3, reference system without additional heat generation, period of 60 minutes); 0.1 min (FIG. 4, inventive example with heat from commercial heat pack (Thermopad; pyrophoric iron, activated carbon, sodium chloride), period up to 6 hours); 0.4 min (FIG. 4, reference system without additional heat generation, period up to 6 hours). In addition, the “amount or rate of release of API, factor greater than that of the reference” value is, setting by setting: (FIG. 2, inventive example with heat (heatable cell head) vs reference without heat, up to 6 hours) roughly 5; (FIG. 3, inventive example with heat (heatable cell head) vs reference without heat, 60 minutes) roughly 4; (FIG. 4, inventive example with commercial heat pack vs reference without heat, up to 6 hours) roughly 8. In addition, the “lag time of reference larger than inventive example by a factor” value reads like this: (FIG. 2, reference without heat vs inventive example with heat) 2; (FIG. 3, reference without heat vs inventive example with heat) 2; (FIG. 4, reference without heat vs inventive example with heat pack) 4.
